Here are results for 16 compounds from ChEMBL document CHEMBL2146384 (J Med Chem, 2012).

In data set [1] the target is T1, Deoxyuridine 5'-triphosphate nucleotidohydrolase, mitochondrial (Homo sapiens, UniProt P33316).
T1 sequence (P33316 whole entry): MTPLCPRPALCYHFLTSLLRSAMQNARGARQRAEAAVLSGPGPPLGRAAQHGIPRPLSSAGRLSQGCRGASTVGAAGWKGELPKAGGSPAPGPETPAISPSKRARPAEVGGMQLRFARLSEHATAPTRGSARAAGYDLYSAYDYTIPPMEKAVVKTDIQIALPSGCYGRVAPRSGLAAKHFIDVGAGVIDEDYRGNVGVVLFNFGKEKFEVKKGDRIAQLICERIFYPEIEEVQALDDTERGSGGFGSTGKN
The experiment in a line: Inhibition of human dUTPase-mediated formation of [5-3H]dUMP expressed in Escherichia coli BL21 (DE3) after 15 mins by HPLC analysis.

Data set [2] is described as follows: Cmax in Balb/cA mouse at 50 mg/kg, po. To be noted: in vivo. Further details: dose 50 mg/kg, route oral. The class given is ADME, organism-based.
Data set [3] in a line: Tmax in Balb/cA mouse at 50 mg/kg, po. The format is ADME, organism-based. The note with it: in vivo. Further details: dose 50 mg/kg, route oral.
Data set [4] in a line: AUC (0 to t) in Balb/cA mouse at 50 mg/kg, po. On the set-up: dose 50 mg/kg, route oral. The note with it: plasma. The format is ADME, organism-based.
Data set [5] is described as follows: Half life in Balb/cA mouse at 50 mg/kg, po. The note with it: in vivo. The format is ADME, organism-based. Further details: dose 50 mg/kg, route oral.
Data set [6] concerns MX1. The experiment in a line: Potentiation of 5-FU induced antitumor activity in human MX1 cells xenografted in Balb/cA JcL mouse at 300 mg/kg/day, po measured on day 15. The format is functional. To be noted: MX1, 360 h. In general terms: A xenograft is tissue or cells of one species grown in another, often human tumour cells in immunodeficient mice.
Data set [7] concerns MX1. The experiment in a line: Antitumor activity against human MX1 cells xenografted in Balb/cA JcL mouse at 300 mg/kg/day, po measured on day 15. The note with it: MX1, 360 h. The class given is functional.
For data set [8], the system named is Mus musculus. The data set is described as follows: Toxicity in Balb/cA JcL mouse xenografted with human MX1 cells assessed as reduction of body weight at 300 mg/kg/day, po co-administered with 5-FU at 15 mg/kg/day as continuous infusion measured on day 15. The class given is organism-based. To be noted: in vivo.
Data set [9] has as its system Mus musculus. The data set is described as follows: Toxicity in Balb/cA JcL mouse xenografted with human MX1 cells assessed as mortality at 300 mg/kg/day, po co-administered with 5-FU at 15 mg/kg/day as continuous infusion measured on day 15. The format is organism-based. The note with it: in vivo.
The test system of data set [10] is MX1. The experiment in a line: Antitumor activity against human MX1 cells xenografted in Balb/cA JcL mouse at 15 mg/kg/day dosed as as continuous infusion measured on day 15. The format is functional. The note with it: MX1, 360 h.

Each structure is given as a SMILES string.

Take `CC(C)(NS(=O)(=O)c1ccccc1)c1ccc(Cn2ccc(=O)[nH]c2=O)cc1`: in [1], half-maximal inhibition (IC50) required 1800 nM.
Compound `CC(C)(CC/C=C/Cn1ccc(=O)[nH]c1=O)NS(=O)(=O)c1ccccc1` came in with a half-inhibitory concentration (IC50) in [1] of 1600 nM.
In data set [1], `COc1cccc(S(=O)(=O)NC(C)(C)c2ccc(Cn3ccc(=O)[nH]c3=O)cc2)c1` registered an IC50 of 1270 nM.
Turning to `CC(C)(NS(=O)(=O)c1cccc(OCC2CC2)c1)c1ccc(Cn2ccc(=O)[nH]c2=O)cc1`, the IC50 in [1] is 73 nM.
Compound `CC(C)(NS(=O)(=O)c1cccc(OC2CCCC2)c1)c1ccc(Cn2ccc(=O)[nH]c2=O)cc1` came in with an IC50 in data set [1] of 31 nM.
Regarding `CC(C)(NS(=O)(=O)c1cccc(OCC(F)F)c1)c1ccc(Cn2ccc(=O)[nH]c2=O)cc1`, the midpoint of inhibition in data set [1], the IC50, lay at 73 nM.
In the case of `COc1cccc(S(=O)(=O)NC(C)(C)CC/C=C/Cn2ccc(=O)[nH]c2=O)c1`, in data set [1], it took 340 nM to reach half-maximal inhibition (IC50).
In turn, `CC(C)(CC/C=C/Cn1ccc(=O)[nH]c1=O)NS(=O)(=O)c1cccc(OC2CCCC2)c1` showed an IC50 in [1] of 33 nM.
The same measure, in the same setting: to `CC(C)(CC/C=C/Cn1ccc(=O)[nH]c1=O)NS(=O)(=O)c1cccc(OCC(F)F)c1` belongs 26 nM; to `C[C@@H](NS(=O)(=O)c1ccc(Cn2ccc(=O)[nH]c2=O)cc1)c1cccc(OCC2CC2)c1`, 820 nM; to `C[C@@H](NS(=O)(=O)c1ccc(Cn2ccc(=O)[nH]c2=O)cc1)c1cccc(OC2CCCC2)c1`, 430 nM.
Consider `C[C@@H](NS(=O)(=O)c1ccc(Cn2ccc(=O)[nH]c2=O)cc1)c1cccc(OCC(F)F)c1`, for which half-maximal inhibition in data set [1] (IC50) required 410 nM.
With `C[C@@H](NS(=O)(=O)CC/C=C/Cn1ccc(=O)[nH]c1=O)c1cccc(OCC2CC2)c1`, in [2], the Cmax stood at 19.5 µM. Moreover, the time to peak (Tmax) in data set [3] was 30 min. In data set [4], this compound registered an AUC(0-t) of 19.5 µM·h. Also, in data set [5], the half-life was 53.4 min. In addition, the values for the inhibition in vivo at 300 mg/kg/day in the data set with MX1 [6] and in the data set on MX1 [7] were 68% and -29%, respectively. In data set [1], it took 39 nM to reach half-maximal inhibition (IC50). The Activity entry in the data set with Mus musculus [8] and in the data set with Mus musculus [9] was “Non-toxic” in each case.
`C[C@@H](NS(=O)(=O)CC/C=C/Cn1ccc(=O)[nH]c1=O)c1cccc(OC2CCCC2)c1` came in with a half-inhibitory concentration (IC50) in [1] of 41 nM.
`C[C@@H](NS(=O)(=O)CC/C=C/Cn1ccc(=O)[nH]c1=O)c1cccc(OCC(F)F)c1` displayed a concentration for half-maximal inhibition (IC50) in [1] of 82 nM.
Take `O=c1[nH]cc(F)c(=O)[nH]1` [FLUOROURACIL]: the inhibition in vivo at 15 mg/kg/day in the data set with MX1 [10] amounted to 20%.

As usually defined, the IC50 is the concentration that gives 50% inhibition. A low value points to higher potency. The term Cmax denotes the peak of the concentration-time curve. The term Tmax denotes the time at which the peak concentration occurs. The AUC(0-t) is the area under the concentration-time curve up to a stated or last time point. High values mean high exposure, low ones low exposure. The term half-life denotes the time in which the quantity being followed falls by half. Read a high half-life as slow loss. By inhibition in vivo is commonly meant the relative decrease from the control value, in per cent.
